Results published in patent publication US10543215B2, “Combination therapy of cardiac myosin activator and sinus node if current inhibitor” (AMGEN INC., priority 2015, dated 2020).
Values joined by “and” are separate entries in the source; they are usually repeats but may differ in a detail not shown here. Identical values can stand only once.

System: conscious telemetered beagle dogs
Test: Left-ventricular hemodynamic, mechanical and timing indices by radio-telemetry before and during IV OM or vehicle, on repeated oral IVA or placebo
Format: in vivo, beagle dog
Description: Healthy male beagle dogs (n=7) instrumented with radio-telemetry units providing continuous single-lead electrocardiogram (ECG), as well as systemic (arterial, AoP) and left-ventricular (LVP) pressure signals were used for this study. Following sling acclimation, the animals were assigned to receive repeated oral (via gavage) treatments with either Ivabradine (IVA, 5 mg/kg bid) or a volume-matched placebo-control (sterile water, CTRL) for 5 days, administered at a dose volume of 10 mL/kg, in a cross over design.
The animals were sling-restrained and were subjected to acute intravenous administration of either sterile water (VEH, on Days 4 and 11 of dosing) or Omecamtiv Mecarbil (OM, on Days 5 and 12 of dosing). OM treatments were performed over a 3-hour infusion duration, following a dose-escalation design targeting plasma concentrations of 600 and 1000 ng/mL (each over 90 minutes, with a 30 minute loading infusion followed by a 60 minute maintenance infusion) for a cumulative dose of 5.293 mg/kg (as shown in Table A below). The IV vehicle treatments were time- and volume-matched.
Telemetered data were collected continuously for at least 90 minutes prior to and during dosing, as well as for at least 20 hours post-dose. The LVP and ECG signals were digitized at a sampling rate of at least 1000 Hz. The data were analyzed for heart rate (HR) and left-ventricular hemodynamic/mechanical indices that were obtained from the pressure waveform, including mean systolic (MSP) and end-diastolic (filling, EDP) pressures, the peak rates of pressure change during systole/diastole (dP/dtmax/min), as well as the time-constant of relaxation (tau) and a contractility index (CI: dP/dtmax normalized by the pressure at dP/dtmax). The data were also analyzed for systolic and diastolic intervals, including the estimated durations of the systolic ejection (SET), contraction (CT), active relaxation (RT) and filling intervals (FT), as well as the systolic-to-diastolic interval ratio (S/D: SET/RT+FT), which were derived from the left-ventricular pressure waveform.
The left-ventricular indices were evaluated only in the sling-restrained animals before and during IV treatment with OM or vehicle. Cardiovascular responses at each dose level were monitored for up to 90 minutes, i.e., over 3 hours total (during IV dosing of VEH and OM on Days 4, 5, 11, and 12 in the dose administration paradigm). Overall, in-sling cardiovascular data are reported at the following pre-determined/targeted time points: prior to dosing (i.e., at baseline, PRE) and approximately at the end of each infusion period (i.e., up to 4 time points during dosing, D1 to D4). Signals were analyzed continuously in 5-minute epochs, with pre-administration (i.e., PRE) values representing the overall mean over at least 5-epochs (i.e., 25 minutes) taken immediately prior to the onset of dosing, while during-dosing values reflect 5-minute averages (i.e., 1 epoch) taken prior to the (estimated) termination of each infusion. Data are presented as both means with standard deviations in summarizing tables/figure; beat-to-beat plots against heart rate are part of the study file.

[1] = D1, end of 30-min loading infusion, target OM 600 ng/mL
[2] = D2, end of 60-min maintenance infusion, target OM 600 ng/mL
[3] = D3, end of 30-min loading infusion, target OM 1000 ng/mL
[4] = D4, end of 60-min maintenance infusion, target OM 1000 ng/mL
[5] = PRE, before IV dosing (baseline)

## COC(=O)N1CCN(Cc2cccc(NC(=O)Nc3ccc(C)nc3)c2F)CC1 [OM, methyl 4-(2-fluoro-3-(3-(6-methylpyridin-3-yl)ureido)benzyl)piperazine-1-carboxylate]
[1]
  CT % vs. PRE: −3%
  CT (contraction time): 65.9 ms
  EDP % vs. PRE: −24%
  EDP (left-ventricular end-diastolic pressure): 9.8 mmHg
  FT % vs. PRE: 23%
  FT (filling time): 425 ms
  HR % vs. PRE: −14%
  HR (heart rate): 86 bpm
  MSP % vs. PRE: −2%
  MSP (left-ventricular mean systolic pressure): 127 mmHg
  RT % vs. PRE: 13%
  RT (relaxation time): 104 ms
  S/D % vs. PRE: 18%
  S/D (systolic to diastolic ratio, SET/RT + FT): 0.41
  SET % vs. PRE: 33%
  SET (systolic ejection time): 207 ms
  Tau % vs. PRE: 19 ± 3%
  Tau (left-ventricular relaxation time-constant): 36.7 ± 3.6 ms
  Vmax % vs. PRE: 3 ± 1%
  Vmax (estimated maximal velocity of myocardial contractile-element shortening): 36.0 ± 1.7 s⁻¹
  dP/dtmax % vs. PRE: −6%
  dP/dtmax (peak rate of LV pressure change during systole): 2,243 mmHg/s
  dP/dtmin % vs. PRE: −12%
  dP/dtmin (peak rate of LV pressure change during diastole): −1,910 mmHg/s
[2]
  CT % vs. PRE: −2%
  CT (contraction time): 66.7 ms
  EDP % vs. PRE: −33%
  EDP (left-ventricular end-diastolic pressure): 8.5 mmHg
  FT % vs. PRE: 2%
  FT (filling time): 321 ms
  HR % vs. PRE: 0%
  HR (heart rate): 99 bpm
  MSP % vs. PRE: 0%
  MSP (left-ventricular mean systolic pressure): 130 mmHg
  RT % vs. PRE: 20%
  RT (relaxation time): 110 ms
  S/D (systolic to diastolic ratio, SET/RT + FT): 0.5
  SET (systolic ejection time): 214 ms
  Tau % vs. PRE: 33 ± 5%
  Tau (left-ventricular relaxation time-constant): 41.1 ± 4.7 ms
  Vmax % vs. PRE: 7 ± 2%
  Vmax (estimated maximal velocity of myocardial contractile-element shortening): 37.2 ± 1.6 s⁻¹
  dP/dtmax % vs. PRE: −1±4% and −1%
  dP/dtmax (peak rate of LV pressure change during systole): 2,356 mmHg/s
  dP/dtmin % vs. PRE: −19%
  dP/dtmin (peak rate of LV pressure change during diastole): −1,759 mmHg/s
[3]
  CT % vs. PRE: −1%
  CT (contraction time): 67.0 ms
  EDP % vs. PRE: −13%
  EDP (left-ventricular end-diastolic pressure): 10.8 mmHg
  FT % vs. PRE: −27%
  FT (filling time): 251 ms
  HR % vs. PRE: 11%
  HR (heart rate): 112 bpm
  MSP % vs. PRE: 0%
  MSP (left-ventricular mean systolic pressure): 130 mmHg
  RT % vs. PRE: 24%
  RT (relaxation time): 114 ms
  S/D % vs. PRE: 73%
  S/D (systolic to diastolic ratio, SET/RT + FT): 0.60
  SET % vs. PRE: 34%
  SET (systolic ejection time): 208 ms
  Tau % vs. PRE: 53 ± 7%
  Tau (left-ventricular relaxation time-constant): 47.6 ± 6.5 ms
  Vmax % vs. PRE: 2 ± 2%
  Vmax (estimated maximal velocity of myocardial contractile-element shortening): 35.6 ± 2.0 s⁻¹
  dP/dtmax % vs. PRE: −3%
  dP/dtmax (peak rate of LV pressure change during systole): 2,319 mmHg/s
  dP/dtmin % vs. PRE: −26%
  dP/dtmin (peak rate of LV pressure change during diastole): −1,608 mmHg/s
[4]
  CT % vs. PRE: 5%
  CT (contraction time): 71.0 ms
  EDP % vs. PRE: 46%
  EDP (left-ventricular end-diastolic pressure): 17.8 mmHg
  FT % vs. PRE: −71%
  FT (filling time): 85 ms
  HR (heart rate): 162 bpm
  MSP % vs. PRE: −15%
  MSP (left-ventricular mean systolic pressure): 111 mmHg
  RT % vs. PRE: 1%
  RT (relaxation time): 93 ms
  S/D (systolic to diastolic ratio, SET/RT + FT): 1.06
  SET % vs. PRE: 5%
  SET (systolic ejection time): 162 ms
  Tau (left-ventricular relaxation time-constant): 54.7 ± 9.7 ms
  Vmax % vs. PRE: −19±8%
  Vmax (estimated maximal velocity of myocardial contractile-element shortening): 28.4 ± 3.4 s⁻¹
  dP/dtmax % vs. PRE: −23%
  dP/dtmax (peak rate of LV pressure change during systole): 1,844 mmHg/s
  dP/dtmin % vs. PRE: −41%
  dP/dtmin (peak rate of LV pressure change during diastole): −1,288 mmHg/s
[5]
  CT (contraction time): 67.9 ± 0.7 ms
  EDP (left-ventricular end-diastolic pressure): 12.3 mmHg
  FT (filling time): 370 ± 50 ms
  HR (heart rate): 102 bpm
  MSP (left-ventricular mean systolic pressure): 131 mmHg
  RT (relaxation time): 92 ± 3 ms
  S/D (systolic to diastolic ratio, SET/RT + FT): 0.36
  SET (systolic ejection time): 156 ± 7 ms
  Tau (left-ventricular relaxation time-constant): 30.8 ± 2.8 ms
  Vmax (estimated maximal velocity of myocardial contractile-element shortening): 34.9 ± 1.6 s⁻¹
  dP/dtmax (peak rate of LV pressure change during systole): 2,401 mmHg/s
  dP/dtmin (peak rate of LV pressure change during diastole): −2,167 mmHg/s
